Measurements taken from patent US12441733B2, “Substituted 2,4-dioxotetrahydropyrimidines as intermediates in the synthesis of bruton's tyrosine kinase inhibitors” (Novartis AG, priority 2018, dated 2025).

Test system: OCI-LY3 cells
Assay: Resazurin cell viability (proliferation) assay in OCI-LY3 DLBCL cells
Type: cell-based
Settings: Homo sapiens, OCI-LY3 cells (BTK independent), 72 h, 50% growth inhibition vs vehicle, read-out: OCI-LY3 Prol GI50
Summary of the method: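 Cells were seeded at 1×10^4 per well and dosed 3 h later: 8-point 1:4 dilutions from 10 μM (OCI-LY3), in triplicate, 72 h at 37 °C. Resazurin (13 μg/ml final) was added for the last 2 h and fluorescence read at 530/600 nm. GI50 is relative to DMSO vehicle, typically from ≥2 independent experiments.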

Row | SMILES | GI50 [µM]
1 | CCOc1ccc(C(=O)N2CCC3(CCN(Cc4ccc(-c5cc6c(-c7cc(F)cc(NC(=O)c8ccc(C(C)(C)O)cc8F)c7C)ncnc6[nH]5)cc4)CC3)CC2)cc1N1CCC(=O)NC1=O [Compound 4, N-(3-(6-(4-((9-(3-(2,4-Dioxotetrahydropyrimidin-1(2H)-yl)-4-ethoxybenzoyl)-3,9-diazaspiro[5.5]undecan-3-yl)methyl)phenyl)-7H-pyrrolo[2,3-d]pyrimidin-4-yl)-5-fluoro-2-methylphenyl)-2-fluoro-4-(2-hydroxypropan-2-yl)benzamide] | 4.69
2 | Cc1ccc(C(=O)N2CCC3(CCN(Cc4ccc(-c5cc6c(-c7cc(F)cc(NC(=O)c8ccc(C(C)(C)O)cc8F)c7C)ncnc6[nH]5)cc4)CC3)CC2)cc1N1CCC(=O)NC1=O [Compound 27, N-(3-(6-(4-((9-(3-(2,4-Dioxotetrahydropyrimidin-1(2H)-yl)-4-methylbenzoyl)-3,9-diazaspiro[5.5]undecan-3-yl)methyl)phenyl)-7H-pyrrolo[2,3-d]pyrimidin-4-yl)-5-fluoro-2-methylphenyl)-2-fluoro-4-(2-hydroxypropan-2-yl)benzamide] | 4.08
